Measured values: patent publication US12522601B2, “1,3,4-oxadiazole derivative compounds as histone deacetylase 6 inhibitor, and the pharmaceutical composition comprising the same” (CHONG KUN DANG PHARMACEUTICAL CORP., priority 2020, dated 2026)

Columns and labels:
[1] = molecular target: T1, human recombinant HDAC1 (Homo sapiens, UniProt Q13547); assay: In vitro HDAC enzyme activity inhibition assay, HDAC1 (HDAC Fluorimetric Drug Discovery Kit); type: biochemical; conditions: human recombinant HDAC1, Fluor de Lys-SIRT1 substrate 10 μM, 30° C. for 60 minutes
T1 construct: purchased Enzo Life Sciences, Inc. BML-SE456
Outline: (§1)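 Both HDAC1 and HDAC6 (human recombinant, 0.3 μg) tested identically: 10 μM fluorogenic Fluor de Lys-SIRT1 substrate, reaction 60 min at 30° C, developer added for 30 min. IC50 calculated from Ex 360/Em 460 signal over 5-fold serial dilutions.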

[2] = molecular target: T2, human recombinant HDAC6 (Homo sapiens, UniProt Q9UBN7); assay: In vitro HDAC enzyme activity inhibition assay, HDAC6 (HDAC Fluorimetric Drug Discovery Kit); type: biochemical; conditions: for HDAC6 Selectivity (fold): HDAC6 versus HDAC1; for IC50: human recombinant HDAC6, same protocol as the HDAC1 test
T2 construct: purchased Calbiochem Inc. 382180
T2 sequence (Q9UBN7 1-1215): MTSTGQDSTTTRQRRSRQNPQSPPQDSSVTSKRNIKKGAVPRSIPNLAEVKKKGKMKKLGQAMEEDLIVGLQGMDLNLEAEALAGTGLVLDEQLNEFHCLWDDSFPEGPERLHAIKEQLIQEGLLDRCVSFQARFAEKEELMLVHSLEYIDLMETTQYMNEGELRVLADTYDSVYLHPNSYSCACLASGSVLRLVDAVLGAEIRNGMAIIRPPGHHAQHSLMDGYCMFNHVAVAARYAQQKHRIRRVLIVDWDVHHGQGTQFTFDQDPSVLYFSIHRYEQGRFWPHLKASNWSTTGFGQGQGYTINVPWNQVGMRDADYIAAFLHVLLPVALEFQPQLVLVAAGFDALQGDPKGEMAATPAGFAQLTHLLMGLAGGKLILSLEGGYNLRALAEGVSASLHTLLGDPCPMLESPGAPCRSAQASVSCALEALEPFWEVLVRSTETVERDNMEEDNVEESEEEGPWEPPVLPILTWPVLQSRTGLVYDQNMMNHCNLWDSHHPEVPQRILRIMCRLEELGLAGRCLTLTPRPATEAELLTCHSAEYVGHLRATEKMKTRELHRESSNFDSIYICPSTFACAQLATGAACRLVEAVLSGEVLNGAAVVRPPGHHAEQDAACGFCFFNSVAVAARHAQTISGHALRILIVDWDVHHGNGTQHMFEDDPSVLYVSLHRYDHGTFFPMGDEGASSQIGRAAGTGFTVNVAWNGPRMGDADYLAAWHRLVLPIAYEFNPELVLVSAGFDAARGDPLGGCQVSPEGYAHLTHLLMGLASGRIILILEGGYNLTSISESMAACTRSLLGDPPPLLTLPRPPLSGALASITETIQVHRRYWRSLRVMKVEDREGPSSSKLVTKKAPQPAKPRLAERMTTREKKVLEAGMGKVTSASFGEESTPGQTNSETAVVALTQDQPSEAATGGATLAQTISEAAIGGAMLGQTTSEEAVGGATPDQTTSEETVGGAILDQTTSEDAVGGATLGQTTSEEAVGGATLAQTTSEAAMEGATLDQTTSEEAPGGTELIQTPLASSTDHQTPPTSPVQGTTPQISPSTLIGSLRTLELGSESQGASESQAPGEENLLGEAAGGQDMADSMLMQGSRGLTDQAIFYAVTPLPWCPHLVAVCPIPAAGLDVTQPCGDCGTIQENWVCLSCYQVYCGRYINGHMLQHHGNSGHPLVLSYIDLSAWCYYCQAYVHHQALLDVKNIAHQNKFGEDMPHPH
Outline: as §1

T1 sequence (Q13547 whole entry): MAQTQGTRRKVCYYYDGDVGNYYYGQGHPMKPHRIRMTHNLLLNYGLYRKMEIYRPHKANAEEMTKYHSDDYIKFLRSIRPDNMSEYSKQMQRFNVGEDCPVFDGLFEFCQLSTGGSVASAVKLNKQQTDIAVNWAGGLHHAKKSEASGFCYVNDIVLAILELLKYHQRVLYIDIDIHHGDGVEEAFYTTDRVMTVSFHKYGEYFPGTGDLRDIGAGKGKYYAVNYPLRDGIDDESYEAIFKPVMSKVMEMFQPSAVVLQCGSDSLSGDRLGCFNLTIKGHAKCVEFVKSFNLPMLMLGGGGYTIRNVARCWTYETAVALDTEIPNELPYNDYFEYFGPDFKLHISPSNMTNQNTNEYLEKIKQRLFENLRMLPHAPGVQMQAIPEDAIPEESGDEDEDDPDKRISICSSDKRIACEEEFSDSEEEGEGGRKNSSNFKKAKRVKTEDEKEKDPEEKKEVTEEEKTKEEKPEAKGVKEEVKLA

Row | Structure (SMILES) | IC50 [1] | HDAC6 Selectivity (fold) [2] | IC50 [2]
1 | Cc1ccc(Cc2cn3ccc(-c4nnc(C(F)F)o4)cc3n2)cc1 [Compound 3589, 2-(difluoromethyl)-5-(2-(4-methylbenzyl)imidazo[1,2-a]pyridin-7-yl)-1,3,4-oxadiazole] | > 50000 nM | 94 fold | 530 nM
2 | CC(=O)N1CC(C(=O)N(Cc2cn3ccc(-c4nnc(C(F)F)o4)cc3n2)c2cccc(F)c2)C1 [Compound 4197, 1-acetyl-N-((7-(5-(difluoromethyl)-1,3,4-oxadiazol-2-yl)imidazo[1,2-a]pyridine-2-yl)methyl)-N-(3-fluorophenyl) azetidine-3-carboxamide] | > 50000 nM | 207 fold | 242 nM
3 | O=C(C1CN(C(=O)C(F)(F)F)C1)N(Cc1cn2ccc(-c3nnc(C(F)F)o3)cc2n1)c1cccc(F)c1 [Compound 4202, N-((7-(5-(difluoromethyl)-1,3,4-oxadiazol-2-yl)imidazo[1,2-a]pyridin-2-yl)methyl)-N-(3-fluorophenyl)-1-(2,2,2-trifluoroacetyl) azetidine-3-carboxamide] | > 50000 nM | 274 fold | 182 nM
4 | O=C(C1CN(C2COC2)C1)N(Cc1cn2ccc(-c3nnc(C(F)F)o3)cc2n1)c1cccc(F)c1 [Compound 4193, N-((7-(5-(difluoromethyl)-1,3,4-oxadiazol-2-yl)imidazo[1,2-a]pyridin-2-yl)methyl)-N-(3-fluorophenyl)-1-(oxetan-3-yl) azetidine-3-carboxamide] | > 50000 nM | 361 fold | 139 nM
5 | O=C(C1CCN(c2ncccn2)CC1)N(Cc1cn2ccc(-c3nnc(C(F)F)o3)cc2n1)c1cccc(F)c1 [Compound 4157, N-((7-(5-(difluoromethyl)-1,3,4-oxadiazol-2-yl)imidazo[1,2-a]pyridin-2-yl)methyl)-N-(3-fluorophenyl)-1-(pyrimidin-2-yl)piperidine-4-carboxamide] | > 50000 nM | 306 fold | 163 nM
6 | CC(C)(C)OC(=O)N1CCN(C(=O)N(Cc2cn3ccc(-c4nnc(C(F)(F)F)o4)cc3n2)c2cccc(F)c2)CC1 [Compound 6892, tert-butyl 4-((3-fluorophenyl) ((7-(5-(trifluoromethyl)-1,3,4-oxadiazol-2-yl)imidazo[1,2-a]pyridine-2-yl)methyl)carbamoyl)piperazine-1-carboxylate] | > 50000 nM | 21.2 fold | 2360 nM
7 | CN1CC(C(=O)N(Cc2cn3ccc(-c4nnc(C(F)F)o4)cc3n2)c2cccc(F)c2)C1 [Compound 4188, N-((7-(5-(difluoromethyl)-1,3,4-oxadiazol-2-yl)imidazo[1,2-a]pyridin-2-yl)methyl)-N-(3-fluorophenyl)-1-methylazetidine-3-carboxamide] | > 50000 nM | 134 fold | 373 nM
8 | O=C(C1CCN(C2CCOCC2)CC1)N(Cc1cn2ccc(-c3nnc(C(F)F)o3)cc2n1)c1cccc(F)c1 [Compound 4144, N-((7-(5-(difluoromethyl)-1,3,4-oxadiazol-2-yl)imidazo[1,2-a]pyridin-2-yl)methyl)-N-(3-fluorophenyl)-1-(tetrahydro-2H-pyran-4-yl)piperidine-4-carboxamide] | > 50000 nM | 206 fold | 243 nM
9 | O=C(C1CN(C2CCOCC2)C1)N(Cc1cn2ccc(-c3nnc(C(F)F)o3)cc2n1)c1cccc(F)c1 [Compound 4195, N-((7-(5-(difluoromethyl)-1,3,4-oxadiazol-2-yl)imidazo[1,2-a]pyridin-2-yl)methyl)-N-(3-fluorophenyl)-1-(tetrahydro-2H-pyran-4-yl) azetidine-3-carboxamide] | > 50000 nM | 261 fold | 192 nM
10 | O=C(N1CCN(C2COC2)CC1)N(Cc1cn2ccc(-c3nnc(C(F)F)o3)cc2n1)c1cccc(F)c1 [Compound 4088, N-((7-(5-(difluoromethyl)-1,3,4-oxadiazol-2-yl)imidazo[1,2-a]pyridin-2-yl)methyl)-N-(3-fluorophenyl)-4-(oxetan-3-yl)piperazine-1-carboxamide] | > 50000 nM | 156 fold | 320 nM
11 | CC(C)N1CC(C(=O)N(Cc2cn3ccc(-c4nnc(C(F)F)o4)cc3n2)c2cccc(F)c2)C1 [Compound 4190, N-((7-(5-(difluoromethyl)-1,3,4-oxadiazol-2-yl)imidazo[1,2-a]pyridin-2-yl)methyl)-N-(3-fluorophenyl)-1-isopropylazetidine-3-carboxamide] | > 50000 nM | 395 fold | 126 nM
12 | CC(C)N1CC(C(=O)N(Cc2cn3ccc(-c4nnc(C(F)F)o4)cc3n2)c2ccccc2)C1 [Compound 4160, N-((7-(5-(difluoromethyl)-1,3,4-oxadiazol-2-yl)imidazo[1,2-a]pyridin-2-yl)methyl)-1-isopropyl-N-phenylazetidine-3-carboxamide] | > 50000 nM | 247 fold | 202 nM
13 | O=C(C1CN(C2CCC(F)(F)CC2)C1)N(Cc1cn2ccc(-c3nnc(C(F)F)o3)cc2n1)c1ccccc1 [Compound 4166, 1-(4,4-difluorocyclohexyl)-N-((7-(5-(difluoromethyl)-1,3,4-oxadiazol-2-yl)imidazo[1,2-a]pyridin-2-yl)methyl)-N-phenylazetidine-3-carboxamide] | > 50000 nM | 197 fold | 254 nM
14 | O=C(C1COC1)N1CCC(C(=O)N(Cc2cn3ccc(-c4nnc(C(F)F)o4)cc3n2)c2cccc(F)c2)CC1 [Compound 4151, N-((7-(5-(difluoromethyl)-1,3,4-oxadiazol-2-yl)imidazo[1,2-a]pyridin-2-yl)methyl)-N-(3-fluorophenyl)-1-(oxetane-3-carbonyl)piperidine-4-carboxamide] | > 50000 nM | 245 fold | 204 nM
15 | O=C(CO)N1CCC(C(=O)N(Cc2cn3ccc(-c4nnc(C(F)F)o4)cc3n2)c2cccc(F)c2)CC1 [Compound 4149, N-((7-(5-(difluoromethyl)-1,3,4-oxadiazol-2-yl)imidazo[1,2-a]pyridin-2-yl)methyl)-N-(3-fluorophenyl)-1-(2-hydroxyacetyl)piperidine-4-carboxamide] | > 50000 nM | 335 fold | 149 nM
16 | O=C(N1CCN(C2COC2)CC1)N(Cc1cn2ccc(-c3nnc(C(F)F)o3)cc2n1)c1ccccc1 [Compound 3785] | > 50000 nM | 437 fold | 114 nM
17 | CS(=O)(=O)N1CC(C(=O)N(Cc2cn3ccc(-c4nnc(C(F)F)o4)cc3n2)c2ccccc2)C1 [Compound 4173, N-((7-(5-(difluoromethyl)-1,3,4-oxadiazol-2-yl)imidazo[1,2-a]pyridin-2-yl)methyl)-1-(methylsulfonyl)-N-phenylazetidine-3-carboxamide] | > 50000 nM | 160 fold | 312 nM
18 | CC(=O)c1cccc(OCc2cn3ccc(-c4nnc(C(F)F)o4)cc3n2)c1 [Compound 3721, 1-(3-((7-(5-(difluoromethyl)-1,3,4-oxadiazol-2-yl)imidazo[1,2-a]pyridin-2-yl)methoxy)phenyl)ethan-1-one] | > 50000 nM | 123 fold | 406 nM
19 | CN1CCN(C(=O)N(Cc2cn3ccc(-c4nnc(C(F)F)o4)cc3n2)c2cccc(F)c2)CC1 [Compound 4083, N-((7-(5-(difluoromethyl)-1,3,4-oxadiazol-2-yl)imidazo[1,2-a]pyridin-2-yl)methyl)-N-(3-fluorophenyl)-4-methylpiperazine-1-carboxamide] | > 50000 nM | 108 fold | 465 nM
